The OligoGym collection
Where “and” joins values, the source holds several entries; their conditions need not be identical. Identical values can stand only once. After the bases stand the sugars from the 5' end (letter, count) and the backbone: PS all phosphorothioate, else s phosphorothioate and o phosphodiester by linkage. Methylation of C is not given here. e = 2'-O-(2-methoxyethyl) (MOE); l = locked nucleic acid (LNA); k = constrained ethyl (cEt); d = 2'-deoxy (DNA)

Key:
ANGPTL2 = details: ASO
KRAS = details: ASO

Sequence	target mRNA inhibition (ANGPTL2; 5 µM)	target mRNA inhibition (ANGPTL2; 25 µM)	target mRNA inhibition (KRAS; A431, 2 µM)	other results
AAGCATCATTGAAAATTC (sugars l4 d10 l4, PS)	75.9%	85.1%		
AAGCTGTTGAAATGTATG (sugars l3 d11 l4, PS)	41.3%	30.4%		
AATTTACAGTTCTTTGTC (sugars l4 d10 l4, PS)	78.2%	83.3%		
ACATGTATATTATGAAGGTA (sugars l4 d14 l2, PS)	18.1%	8.64%		
ACCATTTTGAGATTCCC (sugars l2 d13 l2, PS)	30%	24.7%		
ACCATTTTGAGATTCCCC (sugars l1 d15 l2, PS)	-8.3%	18.9%		
ACTAAATGAACTTCCACA (sugars l4 d11 l3, PS)	44.6%	64.9%		
ACTTCTATTCTTGGACC (sugars l2 d13 l2, PS)	47.8%	55.7%		
ATGATGCGGTTGTAGG (sugars l2 d11 l3, PS)	69.8%	81.1%		
ATTTTGAGATTCCCCCAAAG (sugars l1 d17 l2, PS)	10.8%	2.99%		
CAAGAGGGAGGGGAGGACA (sugars l1 d16 l2, PS)	36.8%	42.9%		
CAGGCCAACACTAACTCGG (sugars l1 d16 l2, PS)	49%	57%		
CATCTAAGGAATGTGGT (sugars l4 d11 l2, PS)	63.7%	71.9%		
CCAACCATAAATTAATTG (sugars l4 d10 l4, PS)	61.8%	74.5%		
CCACACCCAACATTTTA (sugars l2 d13 l2, PS)	56.8%	63%		
CCAGTTCCTGAAGAAGTTA (sugars l1 d15 l3, PS)	27.8%	30.1%		
CCATTTTGAGATTCCCC (sugars l1 d14 l2, PS)	26.4%	11.8%		

Sequence	target mRNA inhibition (ANGPTL2; 5 µM)	target mRNA inhibition (ANGPTL2; 25 µM)	target mRNA inhibition (KRAS; A431, 2 µM)	other results
CCTGGTAAAATCTTACA (sugars l3 d11 l3, PS)	37.4%	48.2%		
CTAGATTTCTTTCAGTTTG (sugars l2 d14 l3, PS)	62.7% and 67.4%	67.5% and 77.3%		
TGGTGTAACATAGGTT (sugars kkkddddddddkekek, PS)			67%	target mRNA inhibition (KRAS; A431, 0.185 µM): 31%; target mRNA inhibition (KRAS; A431, 0.556 µM): 53%; target mRNA inhibition (KRAS; A431, 1.667 µM): 79%; target mRNA inhibition (KRAS; A431, 5 µM): 82%
TGTATCTTGTTGAGCT (sugars k3 d10 k3, PS)			31%	
TGTCTATTCATACCAG (sugars k3 d10 k3, PS)			16%	
TGTGAAACTCTCTATG (sugars k3 d10 k3, PS)			4%	
TGTTTATGCAATGTTA (sugars kkddddddddkekekk, PS)			56%	target mRNA inhibition (KRAS; A431, 0.185 µM): 22%; target mRNA inhibition (KRAS; A431, 0.556 µM): 47%; target mRNA inhibition (KRAS; A431, 1.667 µM): 68%; target mRNA inhibition (KRAS; A431, 5 µM): 76%
TTAGGGGAATTACAAG (sugars k3 d10 k3, PS)			23%	
TTAGTGATTAGGTCAA (sugars k3 d10 k3, PS)			59% and 51% and 52%	target mRNA inhibition (KRAS; A431, 0.185 µM): 32%; target mRNA inhibition (KRAS; A431, 0.556 µM): 56%; target mRNA inhibition (KRAS; A431, 1.667 µM): 68%; target mRNA inhibition (KRAS; A431, 5 µM): 82%
TTAGTGATTAGGTCAA (sugars kddddddddddkekek, PS)			12%	
TTAGTGATTAGGTCAA (sugars kdddddddddkekeke, PS)			0%	
TTAGTGATTAGGTCAA (sugars kkkdddddddddkeke, PS)			32%	
TTCTGATGTGACTCAG (sugars k3 d10 k3, PS)			26%	
TTGATTTGTCAGCAGG (sugars kddddddddddkekek, PS)			17%	
TTGTTGAGCTATCCAA (sugars k3 d10 k3, PS)			3%	
TTTAAAAAAAAAATTA (sugars k3 d10 k3, PS)			3%	
